Assay [1] relates to 5-HETE synthesis by rat glycogen-elicited polymorphonuclear leukocytes. In words: Inhibition of 5-HETE synthesis by rat glycogen-elicited polymorphonuclear leukocytes (lipoxygenase). Format: cell-based, rat (female Wistar). The following applies: Leukocyte, rat PMN, A23187 stimulated; for inhibition at 50 µM: read-out: >50% Inhibitory at 50 μm (5-HETE synthesis). On the procedure:
The assay of this Example measures the ability of the compounds of the invention to inhibit the synthesis of 5-HETE by rat glycogen-elicited polymorphonuclear leukocytes.
(§1) Peritoneal PMN are obtained from female Wistar rats (150-250 g) that received an i.p. injection of 6% glycogen (10 mL). After 24 hours, rats are killed by CO2 asphyxiation and peritoneal cells are harvested by peritoneal lavage using Ca^++ and Mg^++ free Hanks' balanced salt solution (HBSS). The peritoneal exudate is centrifuged at 400 g for 10 minutes. After centrifugation, the lavaged fluid is removed and the cell pellet is resuspended in HBSS containing Ca^++ and Mg^++ and 10 mM L-cysteine at a concentration of 2×10^7 cells/mL. To 1 mL portions of cell suspension, test drugs or vehicle are added and incubated at 37° C. for 10 minutes. Following this preincubation, the calcium ionophore (10 μM), A23187, is added together with 0.5 μCi [^14 C] arachidonic acid and further incubated for 10 minutes. The reaction is stopped by the addition of ice cold water (3 mL) and acidifying to pH 3.5. Lipoxygenase products are then extracted twice into diethyl ether. The pooled ether extracts are evaporated to dryness under nitrogen and the residue is redissolved in a small volume of methanol and spotted on aluminum backed pre-coated thin layer chromatographic plates. The samples are then co-chromatographed with authentic reference 5-HETE, in the solvent system--hexane:ether:acetic acid (50:50:3). After chromatography, the areas associated with 5-HETE standard are identified by autoradiography, cut out and quantitated by liquid scintillation.
The compounds of this invention are tested in this assay at a level of 50 μm, unless otherwise noted. The results are summarized in Table 1, where those compounds having an inhibition of >50% are designated by a "+". Some results are express as an IC50 value.

For assay [2], the system named is synthesis of cyclooxygenase oxidation product TxB2. In words: Inhibition of synthesis of cyclooxygenase product TxB2 (rat polymorphonuclear leukocytes, procedure of Example 17). Format: cell-based, rat (female Wistar). Conditions: Leukocyte, rat PMN; for IC50: TxA2. As to the method: as §1
(§2) The procedure of Example 17 is also employed for the determination of the ability of the compounds of the invention to inhibit the synthesis of the arachidonic acid cyclooxygenase oxidation products TxB2 and PGE2.
In this assay, the procedure of Example 17 is carried out as described. However, in order to determine cyclooxygenase activity, the samples are cochromatographed with authentic reference TxB2 and PGE2 in the solvent system ethyl acetate:formic acid (80:1) and the upper phase of ethyl acetate:isoctane:acetic acid:water (110:50:20:100). After chromatography, the areas associated with TxB2 and PGE2 standards are identified by autoradiography, cut out and quantitated by liquid scintillation techniques.
(§3) The results are calculated as in Example 17.

Assay [3] deals with ovalbumin induced bronchospasm. As to the kind of experiment: Inhibition of ovalbumin-induced bronchospasm mediated by endogenous mediators in sensitized guinea pigs. Format: in vivo, guinea pig (male Hartley). The following applies: 50 mg/kg intraduodenal, 10 minutes before intravenous ovalbumin challenge. On the procedure:
The assay of this Example measures the in vivo ability of the compounds of the invention to inhibit the bronchospasm induced in guinea pigs by endogenous mediators of the bronchoconstriction.
Male Hartley strain guinea pigs weighing 250-350 g are sensitized to chicken ovalbumin (OA) (10 mg i.p.) on days 1 and 3 and used starting on day 26. The animals are anesthetized with pentobarbital sodium (50 mg/kg, i.p.), bilateral vagotomy is performed, and the jugular vein is cannulated for injection of drugs and the carotid artery for monitoring blood pressure. The trachea is cannulated for artificial ventilation by a miniature Starling pump and for indirect measurement of respiratory volume changes as described, infra. Succinylcholine (2 mg/kg, i.v.) is administered to arrest spontaneous respiration. […]
Respiratory volume changes are determined by a calibrated piston whose travel is recorded, via a linear transducer, on a Beckman Dynograph recorder. Maximal bronchoconstrictor volume is determined by clamping off the trachea at the end of the experiment. Overflow volumes at minutes 1, 3 and 5 are obtained from the recorded charts.
Area under the volume overflow curve (AUC) is estimated, using the overflow values at 1, 3 and 5 minutes, and expressed as a percentage of the maximal overflow AUC (equation 1): [formula] […]

In assay [4] the test system is TPA-induced mouse ear edema. As to the kind of experiment: 12-O-tetradecanoylphorbol acetate (TPA)-induced murine ear edema test, topical. The following applies: for % Change from Control, TOPICAL, TPA: TPA 10 μg/ear (footnote b), * = <0.05. Format: in vivo, mouse (Swiss Webster female). The source says:
(§4) The ability of the compounds of the invention to inhibit the lipoxygenase and/or cyclooxygenase pathways of arachidonic acid is examined in the in vivo arachidonic acid (AA)-/12-O-tetradecanoylphorbol acetate (TPA)-induced murine ear edema test.
(§5) According to this test, Swiss Webster female mice (Buckshire), approximately 8 weeks old, are placed into plastic boxes in groups of six. Eight groups of mice receive AA topically on the right ear, and another 8 groups receive TPA topically on the right ear. AA and TPA are dissolved in acetone at concentrations of 100 mg/mL and 100 μg/mL respectively. The phlogistics are applied to the right ear by the means of an automatic pipet. Volumes of 10 μL are applied to the inner and outer surfaces of the ear. […] The left ear (control) receives acetone delivered in the same manner. Oral and topical dosing regimens are as follows: (1) drugs are given 30 minutes prior to AA treatment, and (2) drugs are given 30 minutes after treatment with TPA.
(§6) Measurements are taken with Oditest calipers, 0-10 mm with 0.01 graduations. The right and left ears are measured after 1 hour AA-induced inflammation and 4 hours after TPA-induced inflammation.
(§7) The difference between right and left ear thickness is calculated and the significance is determined by a one way analysis of variance with Dunnett's comparisons to control (P=0.05). Drug effects are expressed as a percent change from control values: [formula]
(§8) The ED50 values are also given for these compounds where this has been determined.

The subject of assay [5] is AA-induced mouse ear edema. In words: Arachidonic acid (AA)-induced murine ear edema test, topical. Format: in vivo, mouse (Swiss Webster female). Conditions: for % Change from Control, TOPICAL, AA: AA 1 mg/ear (footnote a), * = <0.05.
Text: as §4, §5, §6, §7, §8

The subject of assay [6] is synthesis of cyclooxygenase oxidation product PGE2. As to the kind of experiment: Inhibition of synthesis of cyclooxygenase product PGE2 (rat polymorphonuclear leukocytes, procedure of Example 17). Format: cell-based, rat (female Wistar). The following applies: Leukocyte; rat PMN. As to the method: as §1, §2
In this assay, the procedure of Example 17 is carried out as described. […] After chromatography, the areas associated with TxB2 and PGE2 standards are identified by autoradiography, cut out and quantitated by liquid scintillation techniques.
as §3

Molecules are shown by their SMILES. Where only a bound is given, the exact number is not on record here.

As for `Brc1cccc(OCc2ccc3ccccc3n2)c1` [Example 1, 2-[(3-Bromophenoxy)methyl]quinoline], the inhibition at 50 µM in assay [1] is over 50%. This molecule also yielded an inhibition at 50 µM in assay [2] of over 50%. Further, the “% Inhibition of MAX AUC” value in assay [3] was over 50%. In assay [4], the “TOPICAL ED50, TPA” value is reported as 0.7 mg/ear and the “% Change from Control, TOPICAL, TPA” value is recorded as -62%. Besides, in assay [5], the “TOPICAL ED50, AA” value worked out at 2.0 mg/ear and the “% Change from Control, TOPICAL, AA” value is listed as -43%.

Regarding `Fc1ccccc1OCc1ccc2ccccc2n1` [Example 2, 2-[(2-Fluorophenoxy)methyl]quinoline], the inhibition at 50 µM in assay [1] and in assay [2] was over 50% in each case. The “% Change from Control, TOPICAL, TPA” value in assay [4] was -42%. Moreover, the “% Change from Control, TOPICAL, AA” value in assay [5] was -40%.

Consider `Clc1cccc(OCc2ccc3ccccc3n2)c1` [Example 3, 2-[(3-Chlorophenoxy)methyl]quinoline], for which the inhibition at 50 µM in assay [1] and in assay [2] was over 50% throughout. Further, the IC50 in assay [1] is 1.5 µM; in assay [2] it was 7.2 µM; in assay [6], over 100 µM. Besides, the “% Change from Control, TOPICAL, TPA” value in assay [4] is listed as -60%. Also, the “TOPICAL ED50, AA” value in assay [5] was 0.3 mg/ear. The “% Change from Control, TOPICAL, AA” value in assay [5] is on record as -67%.

Consider `Clc1ccc(OCc2ccc3ccccc3n2)cc1` [Example 4, 2-[(4-Chlorophenoxy)methyl]quinoline], for which the inhibition at 50 µM in assay [1] is over 50%. The inhibition at 50 µM in assay [2] was over 50%. Further, the “% Change from Control, TOPICAL, TPA” value in assay [4] is -45%. In addition, in assay [5], the “TOPICAL ED50, AA” value amounted to 1.3 mg/ear and the “% Change from Control, TOPICAL, AA” value was -43%.

`Fc1cccc(OCc2ccc3ccccc3n2)c1` [Example 5, 2-[(3-Fluorophenoxy)methyl]quinoline]: in assay [1], the inhibition at 50 µM was over 50% and half-maximal inhibition (IC50) was put at 9.9 µM. Further, in assay [2], the inhibition at 50 µM was over 50% and the half-maximal inhibitory concentration (IC50) was found to be 3.2 µM. For the same molecule, in assay [4], the “TOPICAL ED50, TPA” value came to 1.6 mg/ear and the “% Change from Control, TOPICAL, TPA” value is -47%. The IC50 in assay [6] was over 100 µM. Moreover, in assay [5], the “TOPICAL ED50, AA” value came to 0.3 mg/ear and the “% Change from Control, TOPICAL, AA” value is -63%.

In the case of `Brc1ccc(OCc2ccc3ccccc3n2)cc1` [Example 6, 2-[(4-Bromophenoxy)methyl]quinoline], the inhibition at 50 µM in assay [1] and in assay [2] was over 50% throughout. Besides, the “% Change from Control, TOPICAL, TPA” value in assay [4] was -22%. For the same molecule, in assay [5], the “% Change from Control, TOPICAL, AA” value is on record as -36%.

`Clc1ccc(OCc2ccc3ccccc3n2)cc1Cl` [Example 7, 2-[(3,4-Dichlorophenoxy)methyl]quinoline]: the inhibition at 50 µM in assay [1] and in assay [2] was over 50% throughout. Besides, the “% Change from Control, TOPICAL, TPA” value in assay [4] is on record as -21%. Moreover, in assay [5], the “% Change from Control, TOPICAL, AA” value is -54%.

Take `Brc1ccccc1OCc1ccc2ccccc2n1` [Example 8, 2-[(2-Bromophenoxy)methyl]quinoline]: the inhibition at 50 µM in assay [1] and in assay [2] was over 50% each time. Also, the “% Change from Control, TOPICAL, TPA” value in assay [4] is recorded as -14%. For the same molecule, the “% Change from Control, TOPICAL, AA” value in assay [5] is recorded as -32%.

As to `c1ccc2cc(OCc3ccc4ccccc4n3)ccc2c1` [Example 9, 2-[(2-Naphthalenyloxy)methyl]quinoline], the inhibition at 50 µM in assay [1] and in assay [2] was over 50% each time.

In the case of `c1ccc2nc(COc3cccc4ccccc34)ccc2c1` [Example 10, 2-[(1-Naphthalenyloxy)methyl]quinoline], the inhibition at 50 µM in assay [1] and in assay [2] was over 50% each time. The half-maximal inhibitory concentration (IC50) in assay [1] is 0.4 µM; in assay [2] it was 6.3 µM; in assay [6] it was over 100 µM. Further, the “TOPICAL ED50, TPA” value in assay [4] was determined as 0.7 mg/ear. Moreover, the “TOPICAL ED50, AA” value in assay [5] is 0.3 mg/ear.

In the case of `Brc1c(OCc2ccc3ccccc3n2)ccc2ccccc12` [Example 11, 2-[(1-Bromo-2-naphthalenyloxy)methyl]quinoline], the inhibition at 50 µM in assay [1] and in assay [2] was over 50% throughout.

Consider `Brc1ccc(SCc2nc3ccccc3s2)cc1` [Example 13], for which the inhibition at 50 µM in assay [1] and in assay [2] was over 50% throughout.

For the molecule `Brc1cccc(SCc2nc3ccccc3s2)c1` [Example 14], the inhibition at 50 µM in assay [1] and in assay [2] was over 50% in each case.

In the case of `c1ccc2nc(COc3cccc4cccnc34)ccc2c1` [Example 15, 2-[(8-quinolinyloxy)-methyl]quinoline], in assay [1], the inhibition at 50 µM was over 50%. The “% Change from Control, TOPICAL, TPA” value in assay [4] is listed as 53%. Besides, the “% Change from Control, TOPICAL, AA” value in assay [5] was found to be 52%.

Regarding `FC(F)(F)c1cccc(OCc2ccc3ccccc3n2)c1` [Example 16, 2-[[3-(trifluoromethyl)phenoxy]methyl]quinoline], the inhibition at 50 µM in assay [1] was over 50%. In addition, in assay [4], the “% Change from Control, TOPICAL, TPA” value came to 22%. In addition, the “% Change from Control, TOPICAL, AA” value in assay [5] is 35%.

The record behind these values is patent US4732978A, “Novel substituted naphthyloxymethyl quinoline derivatives as anti-inflammatory and antiallergy agents” (American Home Products Corporation, priority 1986, dated 1988).
